US20080234262A1 (Wyeth, priority 2007, published 2008)

Key:
breast line MDA468 = experiment: In vitro cell culture growth assay (MTS), MDA468; assay type: cell-based, human; conditions: Homo sapiens, 72 h, MDA468 cells, three days after drug treatment
How it was run: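 Steps: plate cells; add inhibitors the next day; incubate 3 days; add MTS dye, which viable cells convert metabolically; measure absorbance at 490 nm; calculate percent of control growth relative to vehicle-treated cells in the same plate.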

PI3K = PI3K (Homo sapiens, UniProt P42336); experiment: Fluorescence polarization assay for PI3K; assay type: biochemical; conditions: PI3Kα; read-out: PI3Kα IC50;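 further: PI3K kinase reaction on PIP2 with ATP, 30-60 min, product sensed by GST-GRP with red probe in fluorescence polarization (mP), controls without enzyme and at zero time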
prostate line LNCap = experiment: In vitro cell culture growth assay (MTS), LNCap; assay type: cell-based, human; conditions: Homo sapiens, LNCaP, 72 h, LNCap cells, three days after drug treatment;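 further: viable cell density read by absorbance at 490 nm, growth expressed as percent of vehicle-treated cells on the same plate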

PI3K, sequence (P42336 whole entry): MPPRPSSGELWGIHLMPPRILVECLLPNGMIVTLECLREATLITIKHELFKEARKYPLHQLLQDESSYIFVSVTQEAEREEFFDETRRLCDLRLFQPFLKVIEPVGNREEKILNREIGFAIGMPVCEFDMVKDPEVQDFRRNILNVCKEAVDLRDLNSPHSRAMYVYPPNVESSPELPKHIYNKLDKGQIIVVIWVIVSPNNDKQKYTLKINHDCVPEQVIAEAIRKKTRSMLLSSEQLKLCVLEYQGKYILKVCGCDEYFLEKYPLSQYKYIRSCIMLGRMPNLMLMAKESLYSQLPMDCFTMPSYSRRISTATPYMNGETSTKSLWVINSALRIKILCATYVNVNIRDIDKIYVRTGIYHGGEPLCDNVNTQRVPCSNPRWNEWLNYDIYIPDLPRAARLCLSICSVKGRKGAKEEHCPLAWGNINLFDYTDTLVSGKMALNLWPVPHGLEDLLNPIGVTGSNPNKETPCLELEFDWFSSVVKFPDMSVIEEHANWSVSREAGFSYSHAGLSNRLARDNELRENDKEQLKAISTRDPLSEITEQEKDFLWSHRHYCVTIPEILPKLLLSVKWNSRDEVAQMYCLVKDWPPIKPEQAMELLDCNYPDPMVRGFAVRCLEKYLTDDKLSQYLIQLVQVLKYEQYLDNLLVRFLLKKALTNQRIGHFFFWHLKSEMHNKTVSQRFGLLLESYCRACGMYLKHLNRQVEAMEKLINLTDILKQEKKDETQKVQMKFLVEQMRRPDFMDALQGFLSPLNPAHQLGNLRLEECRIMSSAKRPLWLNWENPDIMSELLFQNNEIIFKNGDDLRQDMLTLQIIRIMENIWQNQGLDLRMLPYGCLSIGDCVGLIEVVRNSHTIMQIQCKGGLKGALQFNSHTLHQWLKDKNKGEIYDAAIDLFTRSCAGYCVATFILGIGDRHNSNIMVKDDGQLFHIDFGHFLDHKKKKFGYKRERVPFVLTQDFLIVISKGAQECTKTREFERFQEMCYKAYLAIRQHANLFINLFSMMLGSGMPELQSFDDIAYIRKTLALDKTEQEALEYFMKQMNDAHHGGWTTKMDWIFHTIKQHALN
PI3K, sequence (P27986 whole entry partner): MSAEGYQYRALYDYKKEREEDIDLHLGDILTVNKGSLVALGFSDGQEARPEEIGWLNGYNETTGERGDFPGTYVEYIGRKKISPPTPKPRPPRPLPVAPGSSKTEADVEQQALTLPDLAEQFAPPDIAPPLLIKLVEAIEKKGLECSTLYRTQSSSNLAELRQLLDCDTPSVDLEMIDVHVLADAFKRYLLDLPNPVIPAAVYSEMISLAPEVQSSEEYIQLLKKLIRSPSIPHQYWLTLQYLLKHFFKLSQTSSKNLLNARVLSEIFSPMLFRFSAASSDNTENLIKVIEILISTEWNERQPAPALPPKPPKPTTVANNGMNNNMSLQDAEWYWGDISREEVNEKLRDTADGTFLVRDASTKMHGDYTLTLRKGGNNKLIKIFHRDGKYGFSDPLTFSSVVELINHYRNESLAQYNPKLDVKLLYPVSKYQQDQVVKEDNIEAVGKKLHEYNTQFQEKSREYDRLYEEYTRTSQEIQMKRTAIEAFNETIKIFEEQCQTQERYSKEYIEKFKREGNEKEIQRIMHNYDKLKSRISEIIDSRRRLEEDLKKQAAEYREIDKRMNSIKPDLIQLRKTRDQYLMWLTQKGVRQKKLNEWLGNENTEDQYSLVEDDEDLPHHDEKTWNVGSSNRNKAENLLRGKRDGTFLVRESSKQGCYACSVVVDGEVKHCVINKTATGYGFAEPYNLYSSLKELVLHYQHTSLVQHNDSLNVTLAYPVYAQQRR

Row | IC50 (PI3K) | IC50 (prostate line LNCap) | Compound | IC50 (breast line MDA468)
1 | 3990 nM | 1800 nM | OCCN1CCC(n2ncc3c(N4CCOCC4)nc(-c4ccc5[nH]ccc5c4)nc32)CC1 [Compound 496, 2-{4-[6-(1H-indol-5-yl)-4-morpholin-4-yl-1H-pyrazolo[3,4-d]pyrimidin-1-yl]piperidin-1-yl}ethanol] | 3000 nM
2 | 268 nM | 150 nM | CNC(=O)Nc1ccc(-c2nc(N3CCOC(C)C3)c3cnn(C4CCN(C(=O)OC)CC4)c3n2)cc1 (stereo not drawn) [Compound 841, methyl 4-[6-{4-[(methylcarbamoyl)amino]phenyl}-4-(2-methylmorpholin-4-yl)-1H-pyrazolo[3,4-d]pyrimidin-1-yl]piperidine-1-carboxylate] | 500 nM
3 | 60 nM | 1500 nM | CN(C)CCCn1ncc2c(N3CCOCC3)nc(-c3cccc(O)c3)nc21 [Compound 163] | 6000 nM
4 | 3080 nM | 60000 nM | CC(=O)Nc1ccc(-c2nc(N3CCOCC3)c3cnn(C4CCN(Cc5ccccc5)CC4)c3n2)cc1[N+](=O)[O-] [Compound 184, N-{4-[1-(1-benzylpiperidin-4-yl)-4-morpholin-4-yl-1H-pyrazolo[3,4-d]pyrimidin-6-yl]-2-nitrophenyl}acetamide] | 60000 nM
5 | 108 nM | 27 nM | CNC(=O)Nc1ccc(-c2nc(N3CCOCC3)c3cnn(C4CCN(C(=O)c5ccc(F)cc5)CC4)c3n2)cc1 [Compound 607, 1-(4-{1-[1-(4-fluorobenzoyl)piperidin-4-yl]-4-morpholin-4-yl-1H-pyrazolo[3,4-d]pyrimidin-6-yl}phenyl)-3-methylurea] | 90 nM
6 | 98 nM | 370 nM | C=CC(=O)N1CCC(n2ncc3c(N4CCOCC4)nc(-c4ccc(NC(=O)NC)cc4)nc32)CC1 [Compound 758, 1-{4-[1-(1-acryloylpiperidin-4-yl)-4-morpholin-4-yl-1H-pyrazolo[3,4-d]pyrimidin-6-yl]phenyl}-3-methylurea] | 300 nM
7 | 23 nM | 170 nM | Nc1ncc(-c2nc(N3CCOCC3)c3cnn(C4CCN(Cc5cccnc5)CC4)c3n2)cn1 [Compound 211] | 800 nM
8 | 162 nM | 60000 nM | CC(=O)Nc1ccc(-c2nc(N3CCOCC3)c3cnn(-c4ccccc4)c3n2)cn1 [Compound 148] | 60000 nM
9 | 2040 nM | 5200 nM | COC(=O)N1CCC(n2ncc3c(N4CCOCC4)nc(-c4ccc(NC(=O)OCCN5CCOCC5)cc4)nc32)CC1 [Compound 906, methyl 4-[4-morpholin-4-yl-6-(4-{[(2-morpholin-4-ylethoxy)carbonyl]amino}phenyl)-1H-pyrazolo[3,4-d]pyrimidin-1-yl]piperidine-1-carboxylate] | 23000 nM
10 | 40 nM | 240 nM | Oc1cccc(-c2nc(N3CCOCC3)c3cnn(CC(F)(F)F)c3n2)c1 [Compound 728, 3-[4-morpholin-4-yl-1-(2,2,2-trifluoroethyl)-1H-pyrazolo[3,4-d]pyrimidin-6-yl]phenol] | 745 nM
11 | 90 nM | 45 nM | CNC(=O)Nc1ccc(-c2nc(N3CCOCC3)c3cnn(C4CCN(Cc5cccnc5Cl)CC4)c3n2)cc1 [Example 390, 1-[4-(1-{1-[(2-chloropyridin-3-yl)methyl]piperidin-4-yl}-4-morpholin-4-yl-1H-pyrazolo[3,4-d]pyrimidin-6-yl)phenyl]-3-methylurea] | 100 nM
12 | 6660 nM | 39000 nM | Nc1ccnc(-c2nc(N3CCOCC3)c3cnn(C4CCN(C(=O)c5cccnc5)CC4)c3n2)c1 [Compound 434, 2-{4-morpholin-4-yl-1-[1-(pyridin-3-ylcarbonyl)piperidin-4-yl]-1H-pyrazolo[3,4-d]pyrimidin-6-yl}pyridin-4-amine] | 60000 nM
13 | 30 nM | 27 nM | CNC(=O)Nc1ccc(-c2nc(N3CCOCC3)c3cnn(C4CCN(Cc5cccc(F)c5)CC4)c3n2)cc1 [Compound 428, 1-(4-{1-[1-(3-fluorobenzyl)piperidin-4-yl]-4-morpholin-4-yl-1H-pyrazolo[3,4-d]pyrimidin-6-yl}phenyl)-3-methylurea] | 200 nM
14 | 266 nM | 170 nM | COC(=O)N1CCC(n2ncc3c(N4CCOCC4)nc(-c4ccc(NC(=O)Nc5cccnc5F)cc4)nc32)CC1 [Compound 863, methyl 4-[6-(4-{[(2-fluoropyridin-3-yl)carbamoyl]amino}phenyl)-4-morpholin-4-yl-1H-pyrazolo[3,4-d]pyrimidin-1-yl]piperidine-1-carboxylate] | 680 nM
15 | 1960 nM | 2250 nM | CNC(=O)N1CCC(n2ncc3c(N4CCOCC4)nc(-c4ccc(NC(=O)OC)cc4)nc32)CC1 [Compound 813, methyl (4-{1-[1-(methylcarbamoyl)piperidin-4-yl]-4-morpholin-4-yl-1H-pyrazolo[3,4-d]pyrimidin-6-yl}phenyl)carbamate] | 4400 nM
16 | 76 nM | 45 nM | CNC(=O)Nc1ccc(-c2nc(N3CCOCC3)c3cnn(C4CCN(C(=O)c5cccc(C(F)(F)F)c5)CC4)c3n2)cc1 [Compound 605, 1-methyl-3-[4-(4-morpholin-4-yl-1-{1-[3-(trifluoromethyl)benzoyl]piperidin-4-yl}-1H-pyrazolo[3,4-d]pyrimidin-6-yl)phenyl]urea] | 160 nM
17 | 78 nM | 400 nM | CNC(=O)Nc1ccc(-c2nc(N3CCOCC3)c3cnn(C4CCN(S(C)(=O)=O)CC4)c3n2)cc1 [Compound 759, 1-methyl-3-(4-{1-[1-(methylsulfonyl)piperidin-4-yl]-4-morpholin-4-yl-1H-pyrazolo[3,4-d]pyrimidin-6-yl}phenyl)urea] | 480 nM
18 | 268 nM | 250 nM | C=CCNC(=O)Nc1ccc(-c2nc(N3CCOCC3)c3cnn(C4CCN(Cc5ccccc5)CC4)c3n2)cc1 [Compound 509, 1-allyl-3-{4-[1-(1-benzylpiperidin-4-yl)-4-morpholin-4-yl-1H-pyrazolo[3,4-d]pyrimidin-6-yl]phenyl}urea] | 1800 nM
19 | 55 nM | 40 nM | O=C(Nc1cccnc1)Nc1ccc(-c2nc(N3CCOCC3)c3cnn(C4CCN(Cc5cccnc5)CC4)c3n2)cc1F [Example 373, 1-(2-fluoro-4-{4-morpholin-4-yl-1-[1-(pyridin-3-ylmethyl)piperidin-4-yl]-1H-pyrazolo[3,4-d]pyrimidin-6-yl}phenyl)-3-pyridin-3-ylurea] | 200 nM
20 | 11 nM | 31 nM | O=C(Nc1ccccc1)Nc1ccc(-c2nc(N3CCOCC3)c3cnn(C4CCN(Cc5cccnc5)CC4)c3n2)cc1 [Example 339, 1-(4-{4-morpholin-4-yl-1-[1-(pyridin-3-ylmethyl)piperidin-4-yl]-1H-pyrazolo[3,4-d]pyrimidin-6-yl}phenyl)-3-phenylurea] | 200 nM
21 | 357 nM | 5200 nM | CC(=O)Nc1cccc(-c2nc(N3CCOCC3)c3cnn(-c4ccccc4)c3n2)c1 [Compound 115] | 9000 nM
22 | 918 nM | 1200 nM | c1cc2cc(-c3nc(N4CCOCC4)c4cnn(C5CCCCC5)c4n3)ccc2[nH]1 [Example 90, 1-cyclohexyl-6-(1H-indol-5-yl)-4-morpholin-4-yl-1H-pyrazolo[3,4-d]pyrimidine] | 3200 nM
